Experimental data as given in patent publication US10383333B2, “Carbamate compound and use thereof” (SUMITOMO CHEMICAL COMPANY, LIMITED, priority 2015, dated 2019).

System: wheat rust fungus (Puccinia recondita)
Experiment: Test Example 2: wheat rust, foliar spray before inoculation
Assay type: in vivo
Conditions: 500 ppm foliar spray on wheat (Shirogane), inoculated 5 days after spraying, formulated per Formulation Example 6

SMILES: COC(=O)Nc1ccccc1COc1ccc(-c2ccccn2)cc1 [methyl N-(2-{[4-(pyridine-2-yl)phenoxy)methyl}phenyl)carbamate]
- area of the lesion relative to untreated wheat: ≥ 70%
